According to patent publication US12257214B2, “Compositions and methods comprising deoxy-pentitols” (The Charlotte Mecklenburg Hospital Authority, priority 2021, dated 2025):

What was measured:
SW900 = assay: ATPlite cell IC50 screening, SW900; format: cell-based; details: Homo sapiens; SW900, Squamous cell lung carcinoma; ATPlite luminescence
Description: (§1) In brief, the cells were cultures in relevant medium and treated with a range of 9 doses of 2-deoxyribitol, from 10 mM, 5 mM, 2.5 mM, 1.25 mM, 0.62 mM, 0.31 mM, 0.08 mM, and 0.04 mM. Cells were diluted in the corresponding ATCC recommended medium and dispensed in a 384-well plate, depending on the cell line used, at a density of 100-6400 cells per well in 45 μl medium. For each used cell line the optimal cell density was used. The margins of the plate were filled with phosphate-buffered saline. Plated cells were incubated in a humidified atmosphere of 5% CO2 at 37° C. After 24 hours, 5 μl of compound dilution was added and plates were further incubated. At the end of experiment (t=end), 24 μl of ATPlite 1Step™ (PerkinElmer) solution was added to each well, and subsequently shaken for 2 minutes. After 10 minutes of incubation in the dark, the luminescence was recorded on an Envision multimode reader (PerkinElmer). IC50 was determined in comparison with the control samples. The cell lines tested and their corresponding disease model is indicated the left-most and middle columns, respectively. IC50 values are given in μM values in the right-most column. This screening was performed of a list of cancer cells to establish IC50 values for each of the cancer cell lines. This screening provides evidence for the potential of 2DR to treat many cancer types.

breast cancer T47D cells = assay: T47D cell growth; format: cell-based
Description: Less than 50% of cells and 10% of cells were detected with the treatment of 10 mM and 50 mM 2-deoxyribitol, respectively.

CCRF-CEM = assay: ATPlite cell IC50 screening, CCRF-CEM; format: cell-based; details: Homo sapiens, Childhood T acute lymphoblastic leukemia, ATPlite luminescence
Description: as §1

COLO 829 = assay: ATPlite cell IC50 screening, COLO 829; format: cell-based; details: Homo sapiens; COLO 829, Cutaneous melanoma; ATPlite luminescence
Description: as §1

HT = assay: ATPlite cell IC50 screening, HT; format: cell-based; details: Homo sapiens, Diffuse large B-cell lymphoma, ATPlite luminescence
Description: as §1

CCF-STTG1 = assay: ATPlite cell IC50 screening, CCF-STTG1; format: cell-based; details: Homo sapiens; CCF-STTG1, Astrocytoma; ATPlite luminescence
Description: as §1

RT4 = assay: ATPlite cell IC50 screening, RT4; format: cell-based; details: Homo sapiens, RT-4; RT4, Bladder carcinoma; ATPlite luminescence
Description: as §1

SU-DHL-1 = assay: ATPlite cell IC50 screening, SU-DHL-1; format: cell-based; details: Homo sapiens; SU-DHL-1, Anaplastic large cell lymphoma; ATPlite luminescence
Description: as §1

MCF7 cells = assay: Mammosphere formation (FIG. 4); format: cell-based
Description: Cells were also treated with Vitamin C (VitC) at a concentration of 50 μM for 5 days (5d) and then returned to normal medium (NM) for 6 days (d6), without (lower left panel) or with 2-deoxyribitol (Drug, lower right panel). The formation of cancer mammospheres, considered to be cancer stem cell-rich population, can be seen in culture without Drug treatment, and with Vitamin C treatment only. Drug treatment greatly reduces to eliminates the formation of cancer mammospheres.
To examine mammosphere formation, MCF7 cells were grown for 11 days with or without 2-deoxyribitol (drug) treatment (FIG. 4, top panels). In addition, MCF7 cells were treated with Vitamin C at the concentration of 50 μM for 5 days and then returned to normal medium (“NM”) for 6 days (FIG. 4, lower panels).

G-361 = assay: ATPlite cell IC50 screening, G-361; format: cell-based; details: Homo sapiens; G-361, Melanoma; ATPlite luminescence
Description: as §1

DU 145 = assay: ATPlite cell IC50 screening, DU 145; format: cell-based; details: Homo sapiens; DU 145, Prostate carcinoma; ATPlite luminescence
Description: as §1

Storage stability = format: physicochemical; details: 4 degrees Celsius, highly stable
Excerpt: It can be delivered by direct application to local areas, given orally or through vasculature system. 2-deoxyribitol can also be delivered before, at the same time, or after the use of other drugs. 2-deoxyribitol can be applied as treatment for cancers before, at the same time, or after any other treatment procedure(s). In addition, the effect of 2-deoxyribitol on three tissue types of cancers indicate that it can be applied for many other epithelial cancers.

HCT-15 = assay: ATPlite cell IC50 screening, HCT-15; format: cell-based; details: Homo sapiens; HCT-15, Colon adenocarcinoma; ATPlite luminescence
Description: as §1

[1] = test system: normal human breast epithelial cells MCF7-10F; assay: Normal breast epithelial cell culture (FIG. 8); format: cell-based; details: 2-40 mM, 4 days
Description: 2-deoxyribitol was given in ascending doses of 2 mM (top middle panel), 5 mM (top right panel), 10 mM (bottom left panel), 20 mM (bottom middle panel), and 40 mM (bottom right panel). No significant differences were observed between the control and drug-treated cells at any dose.
In contrast, 2-deoxyribitol produced unnoticeable changes in cell culture of normal human myoblasts or differentiated myotubes (FIG. 7), indicating its low toxicity potential to normal cell populations. In this study, normal human myoblasts (HSKM cells) were treated with 2-deoxyribitol (Drug) for 3 days.

NCI-H460 = assay: ATPlite cell IC50 screening, NCI-H460; format: cell-based; details: Homo sapiens; NCI-H460, Large cell lung carcinoma; ATPlite luminescence
Description: as §1

NCI-H82 = assay: ATPlite cell IC50 screening, NCI-H82; format: cell-based; details: Homo sapiens; NCI-H82, Small cell lung carcinoma; ATPlite luminescence
Description: as §1

T24 = assay: ATPlite cell IC50 screening, T24; format: cell-based; details: Homo sapiens, T-24; T24, Bladder carcinoma; ATPlite luminescence
Description: as §1

5637 = assay: ATPlite cell IC50 screening, 5637; format: cell-based; details: 5637, Bladder carcinoma; ATPlite luminescence
Description: as §1

A-204 = assay: ATPlite cell IC50 screening, A-204; format: cell-based; details: Homo sapiens, A204; A-204, Embryonal rhabdomyosarcoma; ATPlite luminescence
Description: as §1

HT-1080 = assay: ATPlite cell IC50 screening, HT-1080; format: cell-based; details: Homo sapiens; HT-1080, Fibrosarcoma; ATPlite luminescence
Description: as §1

SW837 = assay: ATPlite cell IC50 screening, SW837; format: cell-based; details: Homo sapiens; SW837, Rectal adenocarcinoma; ATPlite luminescence
Description: as §1

SR = assay: ATPlite cell IC50 screening, SR; format: cell-based; details: Homo sapiens, Anaplastic large cell lymphoma, ATPlite luminescence
Description: as §1

786-O = assay: ATPlite cell IC50 screening, 786-O; format: cell-based; details: Homo sapiens, 786-0, Renal cell carcinoma, ATPlite luminescence
Description: as §1

**Q.** Which results are given for `OCC[C@H](O)[C@H](O)CO` [2-deoxyribitol]?
**A.** IC50 (SW900): 3.19 mM; inhibiting cell growth (breast cancer T47D cells): had an effect on inhibiting cell growth; IC50 (CCRF-CEM): 5.97 mM; IC50 (COLO 829): 6.37 mM; IC50 (HT): 6.89 mM; IC50 (CCF-STTG1): 5.84 mM; IC50 (RT4): > 10 mM; IC50 (SU-DHL-1): 2.65 mM; number of mammospheres after Vitamin C pre-treatment (MCF7 cells; MCF7, Vitamin C 50 μM 5 days, then 6 day treatment with 2-deoxyribitol): decreased dramatically; formation of mammospheres (MCF7 cells; MCF7 grown 11 days, 5 mM): no spheres were seen; IC50 (G-361): > 10 mM; IC50 (DU 145): 4.87 mM; stability on storage (Storage stability): at least 6 months; IC50 (HCT-15): 7.7 mM; growth inhibition or cell death of normal breast cells [1]: did not inhibit growth or cause cell death; IC50 (NCI-H460): 3.17 mM; IC50 (NCI-H82): 2.94 mM; IC50 (T24): > 10 mM; IC50 5637: 9.33 mM; IC50 (A-204): 6.06 mM; IC50 (HT-1080): 4.39 mM; IC50 (SW837): 9.79 mM; IC50 (SR): 4.25 mM; IC50 (786-O): 8.57 mM
